US11583569B2, “PSMA-targeting amanitin conjugates” (Heidelberg Pharma Research GmbH, priority 2017, dated 2023)

Assays:
LNCaP (PSMA+) = format: cell-based; details: for S (selectivity): IC50 PC3 (PSMA−) / IC50 LNCaP (PSMA+); for TI for LNCaP: IC50 of free toxin / IC50 of conjugate; for IC50: LNCaP (PSMA+)
Source text: (§1) Note: A direct comparison of all DUPA conjugates with amanitin was not performed in one experiment. The amanitin curve shown in the graph is derived from the direct comparison between HDP 30.2284 and amanitin.

PC3 (PSMA−) = format: cell-based
Source text: as §1

RNA-polymerase II = RNA-polymerase II (Homo sapiens, UniProt P24928); details: complex between amanitin and RNA-polymerase II; cited from earlier work

| SMILES | S (selectivity) (LNCaP (PSMA+)) | TI for LNCaP (LNCaP (PSMA+)) | IC50 (LNCaP (PSMA+)) [µM] | IC50 (PC3 (PSMA−)) [µM] | Kd (RNA-polymerase II) [µM] |
| --- | --- | --- | --- | --- | --- |
| CC[C@H](C)[C@@H]1NC(=O)CNC(=O)[C@H]2Cc3c([nH]c4cc(OCc5ccc(NC(=O)[C@H](C)NC(=O)[C@@H](NC(=O)CCCCCN6C(=O)CC(SC[C@H](NC(=O)[C@H](Cc7ccccc7)NC(=O)[C@H](Cc7ccccc7)NC(=O)CCCCCCCNC(=O)CCC(NC(=O)NC(CCC(=O)O)C(=O)O)C(=O)O)C(=O)O)C6=O)C(C)C)cc5)ccc34)[S+]([O-])C[C@H](NC(=O)CNC1=O)C(=O)N[C@@H](CC(N)=O)C(=O)N1C[C@H](O)C[C@H]1C(=O)N[C@@H]([C@@H](C)[C@@H](O)CO)C(=O)N2 (stereo partly drawn) [HDP 30.2284, 6′-O-[6-(3-(((DUPA-Aoc-Phe-Phe-Cys)-sulfanyl)-2,5-dioxopyrrolidin-1-yl)-hexanamido)-Val-Ala-PAB]-α-amantin] | 1819 | 555 | 0.000863 | 1.57 | – |
| CC[C@H](C)[C@@H]1NC(=O)CNC(=O)[C@@H]2Cc3c([nH]c4cc(O)ccc34)[S+]([O-])C[C@@H](NC(=O)CNC1=O)C(=O)N[C@@H](CC(N)=O)C(=O)N1C[C@H](O)C[C@H]1C(=O)N[C@@H]([C@@H](C)[C@@H](O)CO)C(=O)N2 (stereo in doubt) [α-amanitin, reference compound] | – | – | 0.479 | 0.213 | 0.003 |
| CC[C@H](C)[C@@H]1NC(=O)CNC(=O)[C@@H]2Cc3c([nH]c4cc(OCc5ccc(NC(=O)[C@H](C)NC(=O)[C@@H](NC(=O)CCN6C(=O)CC(SC[C@H](NC(=O)[C@H](Cc7ccccc7)NC(=O)[C@H](Cc7ccccc7)NC(=O)CCCCCCCNC(=O)CC[C@H](NC(=O)N[C@@H](CCC(=O)O)C(=O)O)C(=O)O)C(=O)O)C6=O)C(C)C)cc5)ccc34)[S@+]([O-])C[C@H](NC(=O)CNC1=O)C(=O)N[C@@H](CC(N)=O)C(=O)N1C[C@H](O)C[C@H]1C(=O)N[C@@H]([C@@H](C)[C@@H](O)CO)C(=O)N2 (stereo partly drawn) [HDP 30.2535, 6′-O-[3-(3-(((DUPA-Aoc-Phe-Phe-Cys)-sulfanyl)-2,5-dioxopyrrolidin-1-yl)-propanamido)-Val-Ala-PAB]-α-amantin] | 191 | 253 | – | – | – |
| CC[C@H](C)[C@@H]1NC(=O)CNC(=O)[C@@H]2Cc3c([nH]c4cc(OCCCCCCN5C(=O)CC(SC[C@H](NC(=O)[C@H](Cc6ccccc6)NC(=O)[C@H](Cc6ccccc6)NC(=O)CCCCCCCNC(=O)CC[C@H](NC(=O)N[C@@H](CCC(=O)O)C(=O)O)C(=O)O)C(=O)O)C5=O)ccc34)[S@+]([O-])C[C@H](NC(=O)CNC1=O)C(=O)N[C@@H](CC(N)=O)C(=O)N1C[C@H](O)C[C@H]1C(=O)N[C@@H]([C@@H](C)[C@@H](O)CO)C(=O)N2 (stereo partly drawn) [HDP 30.2301, 6′-O-[6-(((DUPA-Aoc-Phe-Phe-Cys)-sulfanyl)-2,5-dioxopyrrolidin-1-yl)-hexyl]-α-amantin] | 249 | 78 | 0.00611 | 1.52 | – |
| CC[C@H](C)[C@@H]1NC(=O)CNC(=O)[C@@H]2Cc3c([nH]c4cc(OCc5ccc(NC(=O)[C@H](C)NC(=O)[C@@H](NC(=O)CN6C(=O)C(SCCOCCOCCOCCOCCOCCOCCOCCNC(=O)[C@H](Cc7ccccc7)NC(=O)[C@H](Cc7ccccc7)NC(=O)CCCCCCCNC(=O)CC[C@H](NC(=O)N[C@@H](CCC(=O)O)C(=O)O)C(=O)O)=C(SCCOCCOCCOCCOCCOCCOCCOCCNC(=O)[C@H](Cc7ccccc7)NC(=O)[C@H](Cc7ccccc7)NC(=O)CCCCCCCNC(=O)CC[C@H](NC(=O)N[C@@H](CCC(=O)O)C(=O)O)C(=O)O)C6=O)C(C)C)cc5)ccc34)[S@+]([O-])C[C@H](NC(=O)CNC1=O)C(=O)N[C@@H](CC(N)=O)C(=O)N1C[C@H](O)C[C@H]1C(=O)N[C@@H]([C@@H](C)[C@@H](O)CO)C(=O)N2 [HDP 30.2490, 6′-O-[(3,4-(((DUPA-Aoc-Phe-Phe-PEGn)-sulfanyl)-2,5-dioxopyrrolidin-1-yl)-propanamido)-Val-Ala-PAB]-α-amantin] | 52.5 | 62 | – | – | – |
| CC[C@H](C)[C@@H]1NC(=O)CNC(=O)[C@@H]2Cc3c([nH]c4cc(OCCC(C)SSC[C@H](NC(=O)[C@H](Cc5ccccc5)NC(=O)[C@H](Cc5ccccc5)NC(=O)CCCCCCCNC(=O)CC[C@H](NC(=O)N[C@@H](CCC(=O)O)C(=O)O)C(=O)O)C(=O)O)ccc34)[S@+]([O-])C[C@H](NC(=O)CNC1=O)C(=O)N[C@@H](CC(N)=O)C(=O)N1C[C@H](O)C[C@H]1C(=O)N[C@@H]([C@@H](C)[C@@H](O)CO)C(=O)N2 (stereo partly drawn) [HDP 30.2589] | 22.5 | 53 | – | – | – |
| CC[C@H](C)[C@@H]1NC(=O)CNC(=O)C2Cc3c([nH]c4cc(OCc5ccc(NC(=O)[C@H](C)NC(=O)[C@@H](NC(=O)CSC[C@@H](NC(=O)[C@H](Cc6ccccc6)NC(=O)[C@H](Cc6ccccc6)NC(=O)CCCCCCCNC(=O)CCC(NC(=O)NC(CCC(=O)O)C(=O)O)C(=O)O)C(=O)O)C(C)C)cc5)ccc34)[S+]([O-])CC(NC(=O)CNC1=O)C(=O)N[C@@H](CC(N)=O)C(=O)N1CC(O)C[C@H]1C(=O)N[C@@H]([C@@H](C)[C@@H](O)CO)C(=O)N2 (stereo partly drawn) [HDP 30.2515, 6′-O-[2-((DUPA-Aoc-Phe-Phe-Cys)-sulfanyl)-acetamido-Val-Ala-PAB]-α-amantin] | – | – | 0.00451 | 0.663 | – |
| CC[C@H](C)[C@@H]1NC(=O)CNC(=O)[C@@H]2Cc3c([nH]c4cc(OCc5ccc(NC(=O)[C@H](CCCNC(N)=O)NC(=O)[C@@H](NC(=O)CCCCCN6C(=O)CC(SC[C@H](NC(=O)[C@H](Cc7ccccc7)NC(=O)[C@H](Cc7ccccc7)NC(=O)CCCCCCCNC(=O)CC[C@H](NC(=O)N[C@@H](CCC(=O)O)C(=O)O)C(=O)O)C(=O)O)C6=O)C(C)C)cc5)ccc34)[S@+]([O-])C[C@H](NC(=O)CNC1=O)C(=O)N[C@@H](CC(N)=O)C(=O)N1C[C@H](O)C[C@H]1C(=O)N[C@@H]([C@@H](C)[C@@H](O)CO)C(=O)N2 (stereo partly drawn) [HDP 30.2537, 6′-O-[6-(3-(((DUPA-Aoc-Phe-Phe-Cys)-sulfanyl)-2,5-dioxopyrrolidin-1-yl)-hexanamido)-Val-Cit-PAI3]-α-amantin] | 148 | 371 | – | – | – |
